Some results are limits rather than exact numbers.

`CCOC(=O)c1ccc(C#CC(O)c2cc(C(C)(C)C)cc(C(C)(C)C)c2OCOC)cc1` (stereo not given) returned a melting point of 89 to 91 °C.
`Cc1n[nH]c2c(C(=O)NC(C)C)c(NC(=O)c3cc(C(F)(F)F)nn3-c3ncccc3Cl)c(Cl)cc12` showed a melting point of 235 to 236 °C.
In the case of `Cn1nc2cccc(OCCF)c2c1S(N)(=O)=O` it was 178 to 180 °C; in that of `CCC(CC)c1ccc(Cl)c2nc3n(c12)CCCCN3c1c(C)cc(C)cc1OC`, 196 to 198 °C; in that of `O=C1OC(Cc2ccc3c(c2)OCO3)CN1c1ccccc1` (stereo not given), 110 to 111 °C.
In the case of `O=C(O)Cc1cccc(Oc2ccc(Cl)cc2)c1O` it was 100 to 102 °C; in that of `CC(C)(C)c1cc(C(=O)c2cccs2)cc(CN2CCSCC2)c1O`, 165 to 166 °C; in that of `COC(=O)c1cc(S(C)(=O)=O)ccc1OCC(C)C`, 76 to 81 °C.
Under `COc1cc2oc(=O)c(CCO)c(C)c2cc1OC(C)C` stands 110 to 112 °C; under `CN1CCN(C2=Cc3ccccc3Sc3cc(Cl)c(Cl)cc32)CC1`, 157 to 159 °C.
`O=C1NC(=O)c2ccc(Br)cc2/C1=C/Nc1ccc(CN2CCCC2)cc1` displayed a melting point of 165 to 166 °C.
`COc1ccc(-c2cc(COc3cccc4cc(NS(=O)(=O)C(F)(F)F)ccc34)ccc2F)cc1` showed a melting point of 132 to 133 °C.
For `CCCCCCCC(=O)N(C)Cc1cccc(-c2ccc(C=CC(=O)O)s2)c1`, the melting point lay within 102 to 104 °C.
In turn, `CCOCC1N=NC(=S)N1C` (stereo not given) gave a melting point of 137 to 138 °C.
Molecule `Cc1cc(Br)cnc1NCCCNC1=NS(=O)N=C1NCc1ccncn1` (stereo not given) displayed a melting point of 171 to 172 °C.
`COc1ccc(C(=O)Nc2cc(NC(=O)c3cccc(OCC(=O)O)c3)ccc2C)cc1OC` returned a melting point of 206 to 207 °C.
In the case of `CC1c2ccccc2CC(C)(O)Cc2ccccc21` (stereo not given) it was 100 to 135 °C; in that of `O=C1COCCOCC(=O)N2CCOCCOCCN1CCOCC2`, 105 °C.
In the case of `CON=C1C=C(NC(=O)N(N)CCO)C(Cl)=C(C)C1Cl` (stereo not given), the melting point lay within 152 to 156 °C.
On to `O=c1oc2c(c(=O)n1C1CCCCC1)CCC2`, for which the melting point lay within 72 to 74 °C.
In turn, `Cc1c(-c2cccc(F)c2)sc2nc(N)[nH]c(=O)c12` gave a melting point of 310 to 330 °C.
Under `CN1CCN(c2cccc3ccc(N)cc23)CC1` stands 157 to 159 °C; under `O=c1[nH]c2ccc(CCN3CCN(c4cccc5ccccc45)CC3)cc2o1`, 282 to 285 °C; under `Ic1cccc(C=Cc2ccccc2)c1`, 96 °C.
The molecule `OCCOc1cccc2ncccc12` returned a melting point of 109 to 111 °C.
In the case of `O=C(c1cc2cc3[nH]c(=O)[nH]c3cc2[nH]1)N1CCC(Cc2ccccc2)CC1`, the melting point is greater than 270 °C.
Turning to `Nc1nc(N)nc(-c2ccc(Oc3ccccc3)cc2)n1`, the melting point lay within 198 to 200 °C.
In the case of `Cc1cc(OCCCS(C)(=O)=O)cc(C)c1-c1cccc2c1OC[C@H]2Nc1ccc2c(c1)OC[C@H]2CC(=O)O`, the melting point came to 169 °C.
Under `N#CCCNC(=O)c1cccc(-c2cccc(Oc3cncc(Cl)c3)n2)c1` stands 143 to 144 °C.
Under `COc1ccccc1N1CCN(CCCNC(=O)c2cccc3c(=O)c(C)c(C4CCCC4)oc23)CC1` stands 135 to 137 °C; under `CCNc1cc([N+](=O)[O-])ccc1OCCOC`, 83 to 87 °C.
In turn, `O=C(O)Cn1c(=O)c2ccccc2n(CCCN2CCC(OC(c3ccccc3)c3ccccc3)CC2)c1=O` yielded a melting point of 170 to 172 °C.
In the case of `CCOC(=O)C(C)(C)Oc1ccc(-c2ccc(CCNC(=O)Cc3ccccc3)cc2)cc1` it was less than 20 °C; in that of `COc1cc(C(=O)O)ccc1Cn1cnc2ccc(NC(=O)OC3CCCC3)cc21`, 241 to 242 °C; in that of `Cc1cc(-c2cc3cc(OCCNC[C@H](O)COc4ccccc4)ccc3o2)no1`, 144 to 146 °C.
Under `CCCCN1C(=O)NC(Cc2ccc(C#N)cc2)C1=O` (stereo not given) stands 136 °C; under `COC=C(C(=O)OC)N(C)c1cccc(-c2ccc(Cl)cc2)n1`, 135 °C; under `CC(=O)c1ccc2nc(N)[nH]c2c1`, 228 to 234 °C.
The molecule `CCOC(=O)c1ccc(CO)cn1` came in with a melting point of 64 °C.
In the case of `CCCc1nc(CO)n2[nH]c(=O)nc2c1Cc1ccc(-c2ccccc2-c2nnn[nH]2)cc1` it was 182 to 183 °C.
Under `CC(C)C(CN1CCCC1)C(=O)c1cc(-c2ccccc2)no1` (stereo not given) stands 77 to 79 °C.
The molecule `Cc1ccc(C=CC(C)N(O)C(N)=O)o1` (stereo not given) gave a melting point of 122 to 124 °C.
Under `CCOc1cc(-n2nc(C(=O)O)cc2-c2ccc(-c3ccco3)cc2)ccc1S(C)(=O)=O` stands 256 to 257 °C; under `CCOC(=O)c1cn2c3c(c(C#N)ccc3c1=O)CCC2C` (stereo not given), 249 to 251 °C; under `O=C(OCc1ccccc1)c1ccc(OC(=O)c2cccc(C(=O)Oc3ccc(C(=O)OCc4ccccc4)cc3)c2)cc1`, 105 to 107 °C.
In the case of `CCCCCCCCCCCCCCCCCCOc1cc(OCCCOc2ccccc2OCc2ccccc2)cc(C(=O)OCc2ccccc2)c1` it was 49 to 50 °C; in that of `Cn1c(=O)c2ccc(N)nc2n(C)c1=O`, 290 to 295 °C.
Under `CCN(CC)CCN1c2ccccc2N(C)C(=O)c2ccc(C)nc21` stands 91 to 93 °C.
As to `Cc1oc(-c2ccccc2)nc1Cc1cc2cc(C#N)ccc2o1`, the melting point lay in the range of 139 to 140 °C.
In the case of `CCn1nc(-c2ccccc2)c(C(C)=O)c(Nc2cccc3nc(C)ccc23)c1=O` it was 204 to 205 °C; in that of `CC(C)[C@]1(CO)CCC(C)(C)C(=O)O1`, 178 to 181 °C; in that of `O=C1CCCCC1c1ccncc1` (stereo not given), 99 to 101 °C.
In the case of `O=[N+]([O-])c1cnccc1Oc1ccc(Cl)cc1` it was 93 to 94 °C; in that of `O=c1[nH]c(=O)n(C2C=CC(CBr)O2)cc1C=CBr` (stereo not given), greater than 150 °C.
`OCc1ccc2cc(O)ccc2c1` showed a melting point of 179 to 181 °C.
In the case of `O=C1c2ccccc2C(=O)N1C[C@H](O)CCl` it was 100 to 101 °C.
Under `COc1cc(C=O)cc2c1OC1(C=C2Br)CCC1` stands 128 to 129 °C; under `Cc1ccc(NS(=O)(=O)c2cccs2)c2[nH]c(C3=NCCS3)cc12`, 198 to 199 °C.
Take `CC(C)(C)C(=O)Nc1c(F)cc(F)cc1Oc1ccc(C2(C#N)CCCC2)cc1`: the melting point lay within 103 to 105 °C.
Under `CSC(Nc1cccnc1)=C(C#N)S(=O)(=O)c1ccc(Cl)cc1` stands 181 to 182 °C.
With `O=Cc1ccc(OCc2coc(/C=C/c3ccc(S(=O)C(F)(F)F)cc3)n2)cc1` (stereo not given), the melting point was 144 to 147 °C.
`CC(C)OC(C)c1nnc(N)s1` (stereo not given): the melting point lay within 129 to 135 °C.
As to `Nc1c(-c2ccc(C(F)(F)F)cc2F)nnn1-c1ccc(S(N)(=O)=O)cc1`, the melting point was in the range of 184 to 185 °C.
The molecule `CCc1nc2c(cnn2CC)c(NC2CCOCC2)c1CNC(=O)c1cccc(C(=O)NCc2ccc(OC)c(-c3cccc(CN4CCCN(C)CC4)c3)c2)c1` had a melting point of 116 to 119 °C.
In the case of `C=CCNc1ccc(N)cc1[N+](=O)[O-]` it was 80 to 83 °C; in that of `Cc1cc(C)cc(N(CCCC(N)=O)Cc2ccc3nc(NCCCN4CCOCC4)n(Cc4cccc5c4ncn5C)c3c2)c1`, 206 °C.
In the case of `Nc1ccccc1SC(F)(F)F` it was 30 to 31 °C; in that of `CCn1ccc2nc(N3CCN(c4ncc5cc(OC)c(OC)cc5n4)CC3)ncc2c1=O`, 259 to 262 °C; in that of `O=C1Cc2c(OCc3ccccc3)cc(OCc3ccccc3)cc2O[C@@H]1c1ccc(OCc2ccccc2)c(OCc2ccccc2)c1`, 144 °C.
Under `CCOC(=O)CC[C@H](NC(=O)c1cc(CCCc2coc3nc(N)nc(N)c23)cs1)C(=O)OCC` stands 79 to 80 °C; under `CCCCCN1Cc2cc(C)ccc2CCC1=O`, 95 to 97 °C.
Turning to `CN1CCN(Cc2c(CO)c(Cl)nc3cc4c(cc23)OCCO4)CC1`, the melting point is 178 to 180 °C.
Under `CC(=O)C(C#N)c1cc(Cl)cc(Cl)c1Cl` (stereo not given) stands 134 to 135 °C; under `COC(=O)CCC(=O)c1ccc(-c2cccc(F)c2)cc1`, 99 to 101 °C.
Under `CCc1[nH]n(-c2c(Cl)cc(Cl)cc2Cl)c2nc(Cc3ccc(-c4ccc(OC)cc4)cc3)nc(=O)c1-2` stands 275 to 277 °C; under `O=c1c2ccccc2n(CCCCCl)c2ccc(Cl)cc12`, 101 to 106 °C.
In the case of `CCCn1nc2c(N)nc3c(c2c1CCCc1cc(C)no1)CCCC3` it was 144 to 145 °C; in that of `CCCCCCCCCCCCCCCCCCOc1cc(N)cc(OCCCOc2ccccc2)c1`, 74 to 76 °C; in that of `COC(=O)c1ccccc1NCc1ccncc1`, 86 °C.
For `CS(=O)(=O)c1ccc(C2=C(c3ccc(C(F)(F)F)cc3)CCC2)cc1`, the melting point lay in the range of 134 to 135 °C.
The molecule `CCCc1nc2c(N)nc(C)c(C)c2n1CCCCN1CCCS1(=O)=O` displayed a melting point of 155 to 161 °C.
Under `Cn1c(=O)c(-c2ccccc2Cl)cc2cnc(N[C@H]3CC[C@H](N)CC3)nc21` stands 190 to 191 °C; under `CCCCCCn1c(-c2ccc(Cl)c(S(=O)(=O)N(C)C)c2)csc1=Nc1ccccc1`, 86 °C; under `NNC(=O)NCCS(=O)(=O)O`, 212 to 215 °C.
Molecule `COc1ccc(C2CC(=O)N(Cc3ccc4cc(F)ccc4n3)C2)cc1OC1CCCC1` (stereo not given) came in with a melting point of 65 to 68 °C.
As to `CCOC(=O)c1cnc2c(C(F)(F)F)cc(-c3ccc(C(F)(F)F)cc3)cn12`, the melting point stood at 132 °C.
The molecule `O=C(C=Cc1cccnc1)NCC=CCN1CCN(C(c2ccccc2)c2ccccc2)CC1` yielded a melting point of 116 to 119 °C.
Under `CS(=O)(=O)NCC1CC2C=CC1C2` (stereo not given) stands 60 to 62 °C.
`CC(=O)NC(Cc1cccc(C(=O)OC(C)(C)C)c1)C(=O)OCc1ccccc1` (stereo not given) had a melting point of 164 to 166 °C.
The molecule `CON=Cc1sc(-c2ccc(O)cc2)c(C)c1-c1ccc(O)cc1` showed a melting point of 219 to 225 °C.

Usually melting point stands for the temperature, or range, at which the solid turns liquid.

Source of the values: a melting point compilation (Tetko et al.; mined from patent text by program, amines drawn as free bases though some values may be those of a salt).
